# Reference: PMC5790467, “Enhanced anti-tumor efficacy and mechanisms associated with docetaxel-piperine combination- in vitro and in vivo investigation using a taxane-resistant prostate cancer model” (Oncotarget, 2017)
# Where two headings read alike, the source gives them in different places.
# Columns and labels:
# PC3-TxR tumor xenografts = test: Tumor growth in mice with PC3-TxR (taxane-resistant) tumor xenografts; assay type: in vivo, ICR-NOD/SCID mice; conditions: DTX 20 mg/kg once a week i.v.
# Description: (§1) The following experimental protocol was adopted after approval by the Animal Research Ethics Committee at the Chinese University of Hong Kong. PC3 and PC3-TxR cells were cultured in RPMI 1640 medium containing 10% FBS and 1% penicillin-streptomycin in a humidified atmosphere of 5% CO2 at 37°C. PC3 and PC3-TxR cell pellets were re-suspended in serum free RPMI1640 and diluted by Matrigel™ Basement Membrane Matrix (BD Biosciences, Bedford, MA, USA) to the density of 3.33 × 10^6cells/ml. Male ICR-NOD/SCID mice (Laboratory Animal Services Center at the Chinese University of Hong Kong) weighing 25 to 30 g (age 6–8 weeks) was anesthetized with an intraperitoneal injection of a cocktail containing 87 mg/kg ketamine and 8.7 mg/kg xylazine (diluted with saline and the injection volume was about 0.1 ml). The cell suspension was injected subcutaneously to both the left and right flank region. The tumors were allowed to grow for about 2 weeks. Tumor volumes were measured twice per week (tumor volume = [(W^2 × L)/2], where W is the tumor measurement at the widest point, and L is the tumor dimension at the longest point). When the tumors reach about 100 mm^3, treatment was started and the date was designated as Day 0.
# PC3 tumor xenografts = test: Tumor growth in mice with PC3 tumor xenografts; assay type: in vivo, ICR-NOD/SCID mice; conditions: DTX 20 mg/kg once a week i.v., n = 3
# Description: as §1
# P-gp = P-gp (Homo sapiens, UniProt P08183); test: Uptake of DTX in MDCK/MDR1 cells with or without PIP pre-incubation; assay type: cell-based; set-up: expressed in transfected cells; host or cells: MDCK (MDCK/MDR1), gift from Prof; P. Borst
# Chain of P-gp (P08183 whole entry): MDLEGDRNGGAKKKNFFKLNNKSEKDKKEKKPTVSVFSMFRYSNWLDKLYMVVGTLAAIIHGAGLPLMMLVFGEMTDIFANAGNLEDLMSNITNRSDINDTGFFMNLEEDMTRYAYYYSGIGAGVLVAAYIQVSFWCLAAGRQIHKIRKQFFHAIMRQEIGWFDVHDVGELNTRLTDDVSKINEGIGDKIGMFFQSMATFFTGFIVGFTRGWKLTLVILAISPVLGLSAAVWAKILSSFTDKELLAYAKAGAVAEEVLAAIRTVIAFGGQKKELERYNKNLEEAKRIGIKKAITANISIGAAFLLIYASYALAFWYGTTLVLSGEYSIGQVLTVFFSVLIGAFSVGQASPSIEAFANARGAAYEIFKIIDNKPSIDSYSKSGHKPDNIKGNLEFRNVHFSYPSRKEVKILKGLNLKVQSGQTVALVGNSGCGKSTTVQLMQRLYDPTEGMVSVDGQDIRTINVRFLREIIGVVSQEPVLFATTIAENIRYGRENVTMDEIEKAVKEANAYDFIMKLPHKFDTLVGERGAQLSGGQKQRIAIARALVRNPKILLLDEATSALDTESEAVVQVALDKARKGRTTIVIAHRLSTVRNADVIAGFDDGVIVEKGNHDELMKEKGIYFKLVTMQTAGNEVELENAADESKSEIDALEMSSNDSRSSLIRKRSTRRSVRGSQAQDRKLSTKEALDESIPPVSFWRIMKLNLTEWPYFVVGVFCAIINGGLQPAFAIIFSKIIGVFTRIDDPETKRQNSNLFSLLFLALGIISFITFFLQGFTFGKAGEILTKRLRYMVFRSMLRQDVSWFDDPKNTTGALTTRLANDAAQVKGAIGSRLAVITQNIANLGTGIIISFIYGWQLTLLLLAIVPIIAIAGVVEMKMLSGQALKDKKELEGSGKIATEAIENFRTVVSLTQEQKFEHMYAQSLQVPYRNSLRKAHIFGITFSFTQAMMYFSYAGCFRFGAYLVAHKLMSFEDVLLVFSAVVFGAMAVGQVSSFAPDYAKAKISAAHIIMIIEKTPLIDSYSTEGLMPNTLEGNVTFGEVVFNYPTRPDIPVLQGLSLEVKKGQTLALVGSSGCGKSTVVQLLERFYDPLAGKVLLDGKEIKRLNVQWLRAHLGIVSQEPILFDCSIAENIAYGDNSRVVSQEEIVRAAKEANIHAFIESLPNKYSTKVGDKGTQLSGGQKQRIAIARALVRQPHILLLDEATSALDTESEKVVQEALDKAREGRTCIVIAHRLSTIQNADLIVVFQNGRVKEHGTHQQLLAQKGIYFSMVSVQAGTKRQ
# Description: MDCK cells transfected with human gene (MDCK/MDR1) were cultured in Dulbecco’s modified Eagle’s medium supplemented with 10% FBS and 1% penicillin-streptomycin. Cells were subcultured when the confluence reached 80% by trypsinization with 0.25% of trypsin-EDTA. MDCK/MDR1 cells were seeded at a density of 2 × 10^5 cells/well to 24-well and incubated for 24 h. […] After washing twice with ice-cold HBSS, cells were collected in 100 µl of formic acid (0.2%, v/v) using a scraper. BCA Protein Quantification Kit (Abcamplc., Cambridge, UK) was used to quantify the protein content. Cell lysate was treated by 300 µl of mixture of acetonitrile and methanol (50:50, v/v) containing glibenclamide at 50 ng/ml, followed by sonication for 15 min.
# PC3-TxR cells = test: Cell viability (cytotoxicity) of PC3-TxR cells; assay type: cell-based; conditions: Homo sapiens
# Description: www.impactjournals.com/oncotarget/ Oncotarget, Supplementary Materials 2017
# investigation using a taxane-resistant prostate cancer model
# Supplementary Figure 1: Cell viability (measured from triplicate samples) of PC3-TxR cells. (A) The cytotoxicity of PIP
# (1 picture or pasted object on this page, not shown here)
# [1] = DTX concentration in plasma and tissues of TxR tumor bearing mice (LC/MS/MS); assay type: in vivo, ICR-NOD/SCID mice; conditions: for concentration at 2 h: ICR-NOD/SCID, mouse, iv, 20 mg/kg
# Description: On Day 14, mice were sacrificed two hours post drug administration. Blood samples were collected by cardiac puncture followed by centrifugation at 5000 rpm for 3 min for obtaining the plasma. Brain, lung, liver, kidney and tumor were collected and weighed. About 100 mg of each tissue samples were carefully weighed and homogenized after being spiked with 300 µl of formic acid (0.2%, v/v). About 50 µl of plasma or tissue homogenates were spiked with 5 µl of 50% acetonitrile in water and 150 µl of mixture of acetonitrile and methanol (50:50, v/v) containing glibenclamide at 50 ng/ml as internal standard. After centrifugation at 13000 rpm for 10 min, the supernatants were injected into LC/MS/MS system which consisted of an Agilent 6430 triple quadrupole mass spectrometer equipped with an electrospray ionization source (ESI), two Agilent 1290 series pumps and autosampler (Agilent Technologies, Inc., CA, USA). The analytes were separated using a Waters Nova-Pak^ÒC18 column (150 mm×3.9 mm, i.d., 4 µm particle size) protected by a collared frit (4/4.6 mm i.d., 0.5 µm pore size, Thermo Scientific full name, city, state, country). The mobile phase consisted of 0.2% formic acid and acetonitrile (50:50, v/v) with a flow rate at 0.4 ml/min.
# [2] = Body weight and tolerability in mice with TxR tumor xenografts; conditions: TxR tumor xenograft mice; two weeks of treatment; control 96%
# Description: For oral administration of PIP, in 1 ml of PIP dosing solution, 100 µl of its stock solution was solubilized with 500 µl of PEG 400 and 400 µl of physiological saline and the mixture was administrated orally to mice at the dose of 0.1 ml/10 g body weight. […] On Day 0, mice with PC3 cell xenografts were divided into two groups and mice with PC3-TxR cell xenografts were divided into four groups. Mice in each group were treated according to Supplementary Table 3 and the drug dosing lasted for 2 weeks with body weight and tumor sized measured twice per week. […] At the end of experiment, the mice were anesthetized followed by haemospasia to death by cardiac puncture.
# [3] = ketoconazole 200 mg once daily for three days; cancer patients; cited from earlier work
# [4] = Day 14, two hours after i.v. bolus DTX, TxR mice
smiles,measurement,setting,value
"CC(=O)O[C@@]12CO[C@@H]1C[C@H](O)[C@@]1(C)C(=O)[C@H](O)C3=C(C)[C@@H](OC(=O)[C@H](O)[C@@H](NC(=O)OC(C)(C)C)c4ccccc4)C[C@@](O)([C@@H](OC(=O)c4ccccc4)[C@H]21)C3(C)C [DTX, Docetaxel]",percentage of tumor size increase,"PC3-TxR tumor xenografts; TxR tumor xenografts, two weeks after drug administration, PIP 50 mg/kg daily p.o.",217%
same,inhibitory effect on the tumor growth in TxR tumor xenografts,"PC3-TxR tumor xenografts; model verification experiment, n = 3",no inhibitory effect
same,percentage of tumor size increase,PC3 tumor xenografts,55%
same,cell uptake of DTX,"P-gp; DTX 1 μM, absence of PIP",0.35 ± 0.05 nmol/min/mg protein
same,cell uptake of DTX,"P-gp; DTX 5 μM, absence of PIP",2.44 ± 0.14 nmol/min/mg protein
same,cell uptake of DTX,"P-gp; DTX 5 μM, after pre-incubation with PIP",3.57 ± 0.75 nmol/min/mg protein
same,cell uptake of DTX,"P-gp; DTX 10 μM, absence of PIP",3.30 ± 0.38 nmol/min/mg protein
same,cell uptake of DTX,"P-gp; DTX 10 μM, after pre-incubation with PIP",5.20 ± 0.53 nmol/min/mg protein
same,IC50,"PC3-TxR cells; read-out: IC50 of DTX on PC3-TxR, DTX + 5 μg/ml PIP",17.6 nM
same,IC50,"PC3-TxR cells; read-out: IC50 of DTX on PC3-TxR, DTX + 10 μg/ml PIP",10.4 nM
same,IC50,"PC3-TxR cells; read-out: IC50 of DTX on PC3-TxR, DTX + 25 μg/ml PIP",5.5 nM
same,IC50,"PC3-TxR cells; read-out: IC50 of DTX on PC3-TxR, DTX alone",41.4 nM
same,DTX plasma concentration,[1]; [4],703.847 ± 311.129 ng/mL
same,"DTX tissue concentration, Brain",[1]; [4],0.022 ± 0.009 ng/mg
same,"DTX tissue concentration, Kidney",[1]; [4],2.322 ± 1.447 ng/mg
same,"DTX tissue concentration, Liver",[1]; [4],1.080 ± 0.763 ng/mg
same,"DTX tissue concentration, Tumor",[1]; [4],1.312 ± 0.754 ng/mg
same,concentration at 2 h,[1]; brain,22 ng/g
same,concentration at 2 h,[1]; kidney,2320 ng/g
same,concentration at 2 h,[1]; liver,1080 ng/g
same,concentration at 2 h,[1]; lung,5160 ± 2890 ng/g
same,concentration at 2 h,[1]; plasma,704 ng/mL
same,concentration at 2 h,[1]; tumor,1310 ng/g
same,percentage of bodyweights,[2],79%
CC(=O)N1CCN(c2ccc(OCC3COC(Cn4ccnc4)(c4ccc(Cl)cc4Cl)O3)cc2)CC1 (stereo not shown) [Ketoconazole],reduction of the clearance of DTX,[3],49%
